Laboratory results from patent US20250002507A1, “7,8-DIHYDRO-5H-1,6-NAPHTHYRIDINE DERIVATIVES AS POSITIVE ALLOSTERIC MODULATORS OF THE MUSCARINIC ACETYLCHOLINE RECEPTOR M4 FOR TREATING NEUROLOGICAL AND PSYCHIATRIC DISORDERS” (Vanderbilt University, priority 2021, published 2025).

Biological target: T1, Human M4 (Homo sapiens, UniProt P08173)
T1 construct: expressed in transfected cells
T1 sequence (P08173 1-479): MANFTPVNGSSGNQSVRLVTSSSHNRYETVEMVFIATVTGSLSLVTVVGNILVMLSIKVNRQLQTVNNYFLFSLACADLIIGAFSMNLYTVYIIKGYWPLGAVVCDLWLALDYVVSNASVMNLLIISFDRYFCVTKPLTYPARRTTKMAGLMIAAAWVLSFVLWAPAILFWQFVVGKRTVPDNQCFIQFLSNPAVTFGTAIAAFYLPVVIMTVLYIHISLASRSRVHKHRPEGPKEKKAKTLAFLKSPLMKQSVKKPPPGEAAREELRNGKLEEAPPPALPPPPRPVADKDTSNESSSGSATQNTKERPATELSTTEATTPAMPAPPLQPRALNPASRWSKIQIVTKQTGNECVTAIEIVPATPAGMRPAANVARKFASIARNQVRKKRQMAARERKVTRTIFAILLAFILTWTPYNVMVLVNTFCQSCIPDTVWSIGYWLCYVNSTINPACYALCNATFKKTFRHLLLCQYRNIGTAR
Test: mAChR M4 cell-based functional assay (calcium flux, potentiation of EC20 acetylcholine response), hM4-Gqi5 CHO-K1 cells
Conditions: for Emax at 30 µM: CHO-K1, Human M4, % ACh maximum at 30 μM, read-out: Emax (% ACh maximum at 30 μM); for Emax at 30 µM / EC50: Table 3; for EC50: potentiation of EC20 acetylcholine response, calcium flux, CHO-K1 cells, read-out: Human M4 EC50
Outline: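 Positive allosteric modulation was scored as a concentration-dependent rise in the response to an EC20 dose of acetylcholine, added 144 s after the compound. Human M4-Gqi5 CHO-K1 cells carried Fluo-4 dye, and compounds ran as 11-point, 3-fold dilution series. EC50 and Emax came from four-parameter logistic fits of the FDSS fluorescence-ratio traces.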

Row | Compound | Emax at 30 µM | EC50 | Emax (CHO-K1, read-out: Emax (% ACh maximum at 30 μM))
1 | COc1ccc(-c2cnc3c(c2)CN(c2nn4cnnc4cc2C)CC3)cn1 [Compound 202, 3-(6-methoxypyridin-3-yl)-6-(7-methyl-[1,2,4]triazolo[4,3-b]pyridazin-6-yl)-5,6,7,8-tetrahydro-1,6-naphthyridine] | 95% | 227 nM | 
2 | Cc1cc2nncn2nc1N1CCc2ncc(Nc3nsc4ncccc34)cc2C1 [Compound 203, N-(6-(7-methyl-[1,2,4]triazolo[4,3-b]pyridazin-6-yl)-5,6,7,8-tetrahydro-1,6-naphthyridin-3-yl)isothiazolo[5,4-b]pyridin-3-amine] | 35% | 82 nM | 
3 | Cc1cc2nncn2nc1N1CCc2ncc(Nc3nn(C)c4ccccc34)cc2C1 [Compound 204, N-(1-methyl-1H-indazol-3-yl)-6-(7-methyl-[1,2,4]triazolo[4,3-b]pyridazin-6-yl)-5,6,7,8-tetrahydro-1,6-naphthyridin-3-amine] | 62% | 3550 nM | 
4 | Cc1cc2nncn2nc1N1CCc2ncc(Nc3csc4ncccc34)cc2C1 [Compound 205, N-(6-(7-methyl-[1,2,4]triazolo[4,3-b]pyridazin-6-yl)-5,6,7,8-tetrahydro-1,6-naphthyridin-3-yl)thieno[2,3-b]pyridin-3-amine] | 65% | 477 nM | 
5 | Cc1cc2nncn2nc1N1CCc2ncc(N3CCCn4nccc43)cc2C1 [Compound 206, 3-(6,7-dihydropyrazolo[1,5-a]pyrimidin-4(5H)-yl)-6-(7-methyl-[1,2,4]triazolo[4,3-b]pyridazin-6-yl)-5,6,7,8-tetrahydro-1,6-naphthyridine] | 96% | 53 nM | 
6 | Cc1c(N2CCc3ncc(-c4ccc(N5CCCC5)nc4)cc3C2)nn2cnnc2c1C [Compound 207, 6-(7,8-dimethyl-[1,2,4]triazolo[4,3-b]pyridazin-6-yl)-3-(6-(pyrrolidin-1-yl)pyridin-3-yl)-5,6,7,8-tetrahydro-1,6-naphthyridine] | 73% | 401 nM | 
7 | Cc1c(N2CCc3ncc(-c4ccc(N5CC6(C5)CC(F)(F)C6)nc4)cc3C2)nn2cnnc2c1C [Compound 208, 3-(6-(6,6-difluoro-2-azaspiro[3.3]heptan-2-yl)pyridin-3-yl)-6-(7,8-dimethyl-[1,2,4]triazolo[4,3-b]pyridazin-6-yl)-5,6,7,8-tetrahydro-1,6-naphthyridine] | 96% | 463 nM | 
8 | Cc1c(N2CCc3ncc(N4CCCn5nccc54)cc3C2)nn2cnnc2c1C [Compound 209, 3-(6,7-dihydropyrazolo[1,5-a]pyrimidin-4(5H)-yl)-6-(7,8-dimethyl-[1,2,4]triazolo[4,3-b]pyridazin-6-yl)-5,6,7,8-tetrahydro-1,6-naphthyridine] | 99% | 71 nM | 
9 | Cc1c(N2CCc3ncc(Nc4nn(C)c5ccccc45)cc3C2)nn2cnnc2c1C [Compound 210, 6-(7,8-dimethyl-[1,2,4]triazolo[4,3-b]pyridazin-6-yl)-N-(1-methyl-1H-indazol-3-yl)-5,6,7,8-tetrahydro-1,6-naphthyridin-3-amine] | 69% | 900 nM | 
10 | Cc1cc(Nc2cnc3c(c2)CN(c2nn4cnnc4c(C)c2C)CC3)n(CCC(C)C)n1 [Compound 211, 6-(7,8-dimethyl-[1,2,4]triazolo[4,3-b]pyridazin-6-yl)-N-(1-isopentyl-3-methyl-1H-pyrazol-5-yl)-5,6,7,8-tetrahydro-1,6-naphthyridin-3-amine] | 38% | 4120 nM | 
11 | Cc1cc(Nc2cnc3c(c2)CN(c2nn4cnnc4c(C)c2C)CC3)n(CC(C)C)n1 [Compound 212, 6-(7,8-dimethyl-[1,2,4]triazolo[4,3-b]pyridazin-6-yl)-N-(1-isobutyl-3-methyl-1H-pyrazol-5-yl)-5,6,7,8-tetrahydro-1,6-naphthyridin-3-amine] | 41% | 5410 nM | 
12 | CCCCn1nc(C)cc1Nc1cnc2c(c1)CN(c1nn3cnnc3c(C)c1C)CC2 [Compound 213, N-(1-butyl-3-methyl-1H-pyrazol-5-yl)-6-(7,8-dimethyl-[1,2,4]triazolo[4,3-b]pyridazin-6-yl)-5,6,7,8-tetrahydro-1,6-naphthyridin-3-amine] | 52% | 2480 nM | 
13 | Cc1cc(Nc2cnc3c(c2)CN(c2nn4cnnc4c(C)c2C)CC3)n(C(C)C)n1 [Compound 214, 6-(7,8-dimethyl-[1,2,4]triazolo[4,3-b]pyridazin-6-yl)-N-(1-isopropyl-3-methyl-1H-pyrazol-5-yl)-5,6,7,8-tetrahydro-1,6-naphthyridin-3-amine] | 45% | 5500 nM | 
14 | Cc1c(N2CCc3ncc(-c4ccc(N5CCC(F)(F)CC5)nc4)cc3C2)nn2cnnc2c1C [Compound 215, 3-(6-(4,4-difluoropiperidin-1-yl)pyridin-3-yl)-6-(7,8-dimethyl-[1,2,4]triazolo[4,3-b]pyridazin-6-yl)-5,6,7,8-tetrahydro-1,6-naphthyridine] | 86% | 351 nM | 
15 | Cc1c(N2CCc3ncc(-c4ccc(N5CCCC(F)C5)nc4)cc3C2)nn2cnnc2c1C (stereo not shown) [Compound 216, 6-(7,8-dimethyl-[1,2,4]triazolo[4,3-b]pyridazin-6-yl)-3-(6-(3-fluoropiperidin-1-yl)pyridin-3-yl)-5,6,7,8-tetrahydro-1,6-naphthyridine] | 82% | 224 nM | 
16 | Cc1c(N2CCc3ncc(-c4ccc(N5CCC5)nc4)cc3C2)nn2cnnc2c1C [Compound 217, 3-(6-(azetidin-1-yl)pyridin-3-yl)-6-(7,8-dimethyl-[1,2,4]triazolo[4,3-b]pyridazin-6-yl)-5,6,7,8-tetrahydro-1,6-naphthyridine] | 83% | 223 nM | 
17 | Cc1c(N2CCc3ncc(C(C)C)cc3C2)nn2cnnc2c1C [Compound 218, 6-(7,8-dimethyl-[1,2,4]triazolo[4,3-b]pyridazin-6-yl)-3-isopropyl-5,6,7,8-tetrahydro-1,6-naphthyridine] | 89% | 186 nM | 
18 | Cc1c(N2CCc3ncc(C(C)(C)O)cc3C2)nn2c(C(F)(F)F)nnc2c1C [Compound 219, 2-(6-(7,8-dimethyl-3-(trifluoromethyl)-[1,2,4]triazolo[4,3-b]pyridazin-6-yl)-5,6,7,8-tetrahydro-1,6-naphthyridin-3-yl)propan-2-ol] | 81% | 906 nM | 
19 | Cc1c(N2CCc3ncc(O)cc3C2)nn2cnnc2c1C [Compound 220, 6-(7,8-dimethyl-[1,2,4]triazolo[4,3-b]pyridazin-6-yl)-5,6,7,8-tetrahydro-1,6-naphthyridin-3-ol] |  | 1370 nM | 81%
20 | Cc1c(N2CCc3ncc(OCC(C)C)cc3C2)nn2cnnc2c1C [Compound 221, 6-(7,8-dimethyl-[1,2,4]triazolo[4,3-b]pyridazin-6-yl)-3-isobutoxy-5,6,7,8-tetrahydro-1,6-naphthyridine] | 76% | 588 nM | 
21 | Cc1c(N2CCc3ncc(C4CC4)cc3C2)nn2c(C(F)(F)F)nnc2c1C [Compound 222, 3-cyclopropyl-6-(7,8-dimethyl-3-(trifluoromethyl)-[1,2,4]triazolo[4,3-b]pyridazin-6-yl)-5,6,7,8-tetrahydro-1,6-naphthyridine] | 83% | 88 nM | 
22 | Cc1c(N2CCc3ncc(-c4ccc(N5CCOCC5)cc4)cc3C2)nn2cnnc2c1C [Compound 223, 4-(4-(6-(7,8-dimethyl-[1,2,4]triazolo[4,3-b]pyridazin-6-yl)-5,6,7,8-tetrahydro-1,6-naphthyridin-3-yl)phenyl)morpholine] | 95% | 329 nM | 
23 | Cc1c(N2CCc3ncc(-c4ccc(N5CCN(C)CC5)cc4)cc3C2)nn2cnnc2c1C [Compound 224, 6-(7,8-dimethyl-[1,2,4]triazolo[4,3-b]pyridazin-6-yl)-3-(4-(4-methylpiperazin-1-yl)phenyl)-5,6,7,8-tetrahydro-1,6-naphthyridine] | 100% | 581 nM | 
24 | Cc1c(N2CCc3ncc(-c4ccc(N5CCC(F)(F)C5)nc4)cc3C2)nn2cnnc2c1C [Compound 225, 3-(6-(3,3-difluoropyrrolidin-1-yl)pyridin-3-yl)-6-(7,8-dimethyl-[1,2,4]triazolo[4,3-b]pyridazin-6-yl)-5,6,7,8-tetrahydro-1,6-naphthyridine] | 85% | 435 nM | 
25 | Cc1c(N2CCc3ncc(C(=O)Nc4ccccc4F)cc3C2)nn2c(C(F)(F)F)nnc2c1C [Compound 226, 6-(7,8-dimethyl-3-(trifluoromethyl)-[1,2,4]triazolo[4,3-b]pyridazin-6-yl)-N-(2-fluorophenyl)-5,6,7,8-tetrahydro-1,6-naphthyridine-3-carboxamide] | 79% | 1780 nM | 
26 | Cc1c(N2CCc3ncc(C(=O)N4CCCC4)cc3C2)nn2c(C(F)(F)F)nnc2c1C [Compound 227, (6-(7,8-dimethyl-3-(trifluoromethyl)-[1,2,4]triazolo[4,3-b]pyridazin-6-yl)-5,6,7,8-tetrahydro-1,6-naphthyridin-3-yl)(pyrrolidin-1-yl)methanone] | 76% | 6410 nM | 
